Data: ChEMBL document CHEMBL3085750, “Discovery of 2-methylpyridine-based biaryl amides as γ-secretase modulators for the treatment of Alzheimer's disease” (Bioorg Med Chem Lett, 2013)
Each block holds one compound with its values, some of them ahead of it. Active and inactive are the calls of the source. The rule behind the calls is not given here.

Tests used:
[1] = Apparent permeability in pig LLC-PK1 cells; format: ADME, cell-based, Sus scrofa
Rattus norvegicus [2] = assay: Toxicity in Sprague-Dawley rat assessed as histopathological changes at 30 to 300 mg/kg, po after 4 days by light microscopic analysis; format: organism-based; design: dose 30-300 mg/kg, route oral; conditions: in vivo, 96 h
Rattus norvegicus [3] = assay: Reduction of amyloid beta-40 level in Sprague-Dawley rat CSF at 100 mg/kg, po after 4 hrs by immunoassay; format: functional, organism-based; design: dose 100 mg/kg
Rattus norvegicus [4] = assay: Toxicity in Sprague-Dawley rat assessed as notch-associated effects at 30 to 300 mg/kg, po after 4 days by light microscopic analysis; format: organism-based; design: dose 30-300 mg/kg, route oral; conditions: in vivo, 96 h
[5] = Oral bioavailability in cynomolgus monkey at 5 mg/kg; format: ADME, organism-based, Macaca fascicularis; conditions: in vivo
Rattus norvegicus [6] = assay: Reduction of amyloid beta-42 level in Sprague-Dawley rat brain at 100 mg/kg, po after 4 hrs by immunoassay relative to control; format: functional; design: scale not given: the % may be the effect or the level left
[7] = Ratio of drug level in brain to plasma in Sprague-Dawley rat; format: ADME, cell-free; conditions: read-out: BPR
[8] = Clearance in cynomolgus monkey at 2 mg/kg, iv; format: ADME, organism-based, Macaca fascicularis; design: dose 2 mg/kg, route intravenous; conditions: in vivo
Gamma-secretase [9] = assay: Modulation of gamma-secretase in HEK293 cells expressing guinea pig Swedish mutant SFV-APP695sw assessed as inhibition of amyloid beta-42 production after 16 to 18 hrs by HTRF assay; format: cell-based, Homo sapiens
[10] = target: T1, Gamma-secretase (Homo sapiens) (UniProt Q96BI3+Q9NZ42+Q8WW43+P49768+Q92542+P49810); assay: Selectivity ratio of IC50 for gamma-secretase-mediated notch processing in HEK293 cells by dual-cell luciferase reporter gene assay to IC50 for gamma-secretase-mediated amyloid beta-42 production in HEK293 cells by HTRF assay; format: cell-based
Plasma [11] = assay: Drug uptake in Sprague-Dawley rat plasma at 100 mg/kg, po after 4 to 36 hrs by LC/MS analysis; format: ADME, organism-based; design: dose 100 mg/kg, route oral; conditions: in vivo
Rattus norvegicus [12] = assay: Reduction of amyloid beta level in Sprague-Dawley rat CSF at 100 mg/kg, po after 36 hrs by immunoassay; format: functional, organism-based; design: dose 100 mg/kg
Cytochrome P450 2D6 = Cytochrome P450 2D6 (Homo sapiens, UniProt P10635); assay: Inhibition of CYP2D6 (unknown origin) after 10 mins; format: ADME
Sequence of Cytochrome P450 2D6 (P10635 whole entry): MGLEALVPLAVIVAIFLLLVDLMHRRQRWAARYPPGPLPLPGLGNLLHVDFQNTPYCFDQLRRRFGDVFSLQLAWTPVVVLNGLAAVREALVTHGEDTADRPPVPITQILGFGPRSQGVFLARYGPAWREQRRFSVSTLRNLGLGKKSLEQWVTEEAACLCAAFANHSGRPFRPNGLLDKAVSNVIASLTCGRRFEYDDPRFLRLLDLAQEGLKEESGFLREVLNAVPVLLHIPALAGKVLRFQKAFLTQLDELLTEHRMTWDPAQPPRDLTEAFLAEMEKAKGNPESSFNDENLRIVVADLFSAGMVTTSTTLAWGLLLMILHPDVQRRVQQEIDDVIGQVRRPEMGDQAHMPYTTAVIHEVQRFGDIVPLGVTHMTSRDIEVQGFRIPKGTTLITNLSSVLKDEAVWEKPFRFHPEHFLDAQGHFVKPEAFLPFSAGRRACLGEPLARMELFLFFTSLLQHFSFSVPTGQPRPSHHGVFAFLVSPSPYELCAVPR

[13] = Metabolic stability in rat liver microsomes at 1 uM after 30 mins; format: ADME; conditions: read-out: Stability
Gamma-secretase [14] = assay: Modulation of gamma-secretase in HEK293 cells expressing guinea pig Swedish mutant SFV-APP695sw assessed as inhibition of amyloid beta-40 production after 16 to 18 hrs by HTRF assay; format: cell-based, Homo sapiens
[15] = Volume of distribution at steady state in rat at 2 mg/kg, iv; format: ADME, organism-based; design: dose 2 mg/kg, route intravenous; conditions: in vivo, read-out: Vdss
Rattus norvegicus [16] = assay: Reduction of amyloid beta-40 level in Sprague-Dawley rat brain at 100 mg/kg, po after 4 hrs by immunoassay; format: functional, organism-based; design: dose 100 mg/kg
[17] = Metabolic stability in human liver microsomes at 1 uM after 30 mins; format: ADME; conditions: read-out: Stability
Gamma-secretase [18] = assay: Modulation of gamma-secretase in HEK293 cells expressing guinea pig Swedish mutant SFV-APP695sw coexpressing DLL4 assessed as inhibition of notch processing in human TE671 cells after 3 days by dual-cell luciferase reporter gene assay; format: cell-based
Rattus norvegicus [19] = assay: Reduction of amyloid beta-42 level in Sprague-Dawley rat CSF at 300 mg/kg, po after 24 hrs by immunoassay relative to control; format: functional; design: scale not given: the % may be the effect or the level left
Cytochrome P450 3A4 = Cytochrome P450 3A4 (Homo sapiens, UniProt P08684); assay: Inhibition of CYP3A4 (unknown origin) after 5 mins; format: ADME
Sequence of Cytochrome P450 3A4 (P08684 whole entry): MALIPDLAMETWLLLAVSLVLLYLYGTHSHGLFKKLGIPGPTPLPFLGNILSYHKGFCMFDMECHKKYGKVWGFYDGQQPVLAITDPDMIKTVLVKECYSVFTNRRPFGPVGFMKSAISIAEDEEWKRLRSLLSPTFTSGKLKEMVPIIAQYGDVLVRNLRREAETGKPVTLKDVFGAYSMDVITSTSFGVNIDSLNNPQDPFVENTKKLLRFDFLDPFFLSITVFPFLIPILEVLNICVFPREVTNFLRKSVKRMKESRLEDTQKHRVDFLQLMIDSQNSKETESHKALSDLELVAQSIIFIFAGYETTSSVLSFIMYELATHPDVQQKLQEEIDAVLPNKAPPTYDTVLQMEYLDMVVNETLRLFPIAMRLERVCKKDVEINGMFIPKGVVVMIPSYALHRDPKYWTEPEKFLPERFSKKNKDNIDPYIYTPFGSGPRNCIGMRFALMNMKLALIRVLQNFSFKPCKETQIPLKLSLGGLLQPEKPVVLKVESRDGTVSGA

Rattus norvegicus [20] = assay: Reduction of amyloid beta-42 level in Sprague-Dawley rat CSF at 30 mg/kg, po after 24 hrs by immunoassay relative to control; format: functional; design: scale not given: the % may be the effect or the level left
[21] = Oral bioavailability in rat at 5 mg/kg; format: ADME, organism-based; conditions: in vivo
Brain = assay: Drug uptake in Sprague-Dawley rat brain at 100 mg/kg, po after 4 to 36 hrs by LC/MS analysis; format: ADME, organism-based; design: dose 100 mg/kg, route oral; conditions: in vivo
[22] = Half life in rat at 2 mg/kg, iv; format: ADME, organism-based; design: dose 2 mg/kg, route intravenous; conditions: in vivo
[23] = Volume of distribution at steady state in cynomolgus monkey at 2 mg/kg, iv; format: ADME, organism-based, Macaca fascicularis; design: dose 2 mg/kg, route intravenous; conditions: in vivo, read-out: Vdss
[24] = Half life in cynomolgus monkey at 2 mg/kg, iv; format: ADME, organism-based, Macaca fascicularis; design: dose 2 mg/kg, route intravenous; conditions: in vivo
Rattus norvegicus [25] = assay: Reduction of amyloid beta-42 level in Sprague-Dawley rat CSF at 100 mg/kg, po after 4 hrs by immunoassay relative to control; format: functional; design: scale not given: the % may be the effect or the level left
Rattus norvegicus [26] = assay: Reduction of amyloid beta-42 level in Sprague-Dawley rat CSF at 100 mg/kg, po after 24 hrs by immunoassay relative to control; format: functional; design: scale not given: the % may be the effect or the level left
[27] = Efflux ratio of apparent permeability in pig LLC-PK1 cells; format: ADME, cell-based, Sus scrofa
Plasma [28] = assay: Unbound plasma concentration in Sprague-Dawley rat at 300 mg/kg; format: ADME, organism-based; design: dose 300 mg/kg; conditions: in vivo
[29] = Clearance in rat at 2 mg/kg, iv; format: ADME, organism-based; design: dose 2 mg/kg, route intravenous; conditions: in vivo
[30] = Ratio of unbound plasma concentration in Sprague-Dawley rat to gamma-secretase-mediated amyloid beta-42 production in HEK293 cells; format: ADME, cell-based
Rattus norvegicus [31] = assay: Reduction of amyloid beta-42 level in Sprague-Dawley rat CSF at 3 mg/kg after 24 hrs by immunoassay relative to control; format: functional; design: scale not given: the % may be the effect or the level left
[32] = AUC (0 to 24 hrs) in Sprague-Dawley rat at 3 mg/kg at day 1; format: ADME, organism-based; design: time < 24 hr, dose 3 mg/kg; conditions: plasma
Rattus norvegicus [33] = assay: Reduction of amyloid beta-42 level in Sprague-Dawley rat CSF at 3 mg/kg after 4 hrs by immunoassay relative to control; format: functional; design: scale not given: the % may be the effect or the level left
Rattus norvegicus [34] = assay: Toxicity in Sprague-Dawley rat assessed as thickening of hypertrophic zone of tibial physis at 1 to 3 mg/kg after 4 days by light microscopic analysis; format: organism-based; design: dose 1-3 mg/kg; conditions: in vivo, 96 h
Rattus norvegicus [35] = assay: Toxicity in Sprague-Dawley rat assessed as thymic cortical lymphoid depletion at 1 to 3 mg/kg after 4 days by light microscopic analysis; format: organism-based; design: dose 1-3 mg/kg; conditions: in vivo, 96 h
Rattus norvegicus [36] = assay: Toxicity in Sprague-Dawley rat assessed as marginal zone lymphoid depletion in spleen at 1 to 3 mg/kg after 4 days by light microscopic analysis; format: organism-based; design: dose 1-3 mg/kg; conditions: in vivo, 96 h
Plasma [37] = assay: Unbound plasma concentration in Sprague-Dawley rat at 1 mg/kg; format: ADME, organism-based; design: dose 1 mg/kg; conditions: in vivo
Rattus norvegicus [38] = assay: Toxicity in Sprague-Dawley rat assessed as increased goblet cell numbers in colon at 1 to 3 mg/kg after 4 days by light microscopic analysis; format: organism-based; design: dose 1-3 mg/kg; conditions: in vivo, 96 h
Rattus norvegicus [39] = assay: Reduction of amyloid beta-42 level in Sprague-Dawley rat CSF at 1 mg/kg after 4 hrs by immunoassay relative to control; format: functional; design: scale not given: the % may be the effect or the level left
Plasma [40] = assay: Unbound plasma concentration in Sprague-Dawley rat; format: ADME, cell-free
Rattus norvegicus [41] = assay: Toxicity in Sprague-Dawley rat assessed as presence of mixed inflammatory infiltrate with mild villus blunting and fusion in duodenum at 1 to 3 mg/kg after 4 days by light microscopic analysis; format: organism-based; design: dose 1-3 mg/kg; conditions: in vivo, other, 96 h
[42] = Plasma protein binding in Sprague-Dawley rat; format: ADME, cell-free; conditions: read-out: PPB (converted)
Rattus norvegicus [43] = assay: Toxicity in Sprague-Dawley rat assessed as increase in neutrophils and monocytes in peripheral blood at 1 to 3 mg/kg after 4 days by light microscopic analysis; format: organism-based; design: dose 1-3 mg/kg; conditions: in vivo, 96 h
[44] = AUC (0 to 24 hrs) in Sprague-Dawley rat at 3 mg/kg at day 4; format: ADME, organism-based; design: time < 24 hr, dose 3 mg/kg; conditions: plasma
Rattus norvegicus [45] = assay: Toxicity in Sprague-Dawley rat assessed as increased goblet cell numbers in duodenum at 1 to 3 mg/kg after 4 days by light microscopic analysis; format: organism-based; design: dose 1-3 mg/kg; conditions: in vivo, other, 96 h
[46] = Ratio of drug level in brain to plasma in mouse at 10 mg/kg, po after 2 hrs; format: ADME, organism-based; design: dose 10 mg/kg, route oral; conditions: read-out: BPR
[47] = target: T1, Gamma-secretase (Homo sapiens); assay: Modulation of gamma-secretase in HEK293 cells expressing guinea pig Swedish mutant SFV-APP695sw assessed as inhibition of amyloid beta-42 production at 10 uM after 16 to 18 hrs by HTRF assay relative to control; format: cell-based

SMILES: Cc1cc(-c2ccc(NC(=O)Cc3cc(C(F)(F)F)cc(C(F)(F)F)c3)cc2)ccn1
IC50 (Gamma-secretase [9]): 0.46 µM | IC50 (Cytochrome P450 2D6): 13 µM | microsomal CLint at 1 µM [13]: 22 µL/min/mg | microsomal CLint at 1 µM [17]: 18 µL/min/mg | IC50 (Cytochrome P450 3A4): > 27 µM

SMILES: C=Cc1cc(-c2ccc(NS(=O)(=O)c3cc(C(F)(F)F)cc(C(F)(F)F)c3)cc2)ccn1
IC50 (Gamma-secretase [9]): 1.26 µM | IC50 (Cytochrome P450 2D6): 0.7 µM | microsomal CLint at 1 µM [13]: 169 µL/min/mg | microsomal CLint at 1 µM [17]: 193 µL/min/mg | IC50 (Cytochrome P450 3A4): 4.5 µM

Continued, in another order:

Papp [1]: 7.8 ×10⁻⁶ cm/s | bioavailability [5]: 56% | Kp [7]: 2 | clearance [8]: 2.67 mL/min/kg | IC50 (Gamma-secretase [9]): 0.26 µM | Ratio IC50 [10]: 45 | Drug uptake (Plasma [11]): Active | IC50 (Cytochrome P450 2D6): 4.1 µM | microsomal CLint at 1 µM [13]: < 14 µL/min/mg | IC50 (Gamma-secretase [14]): 3.1 µM | Vd [15]: 4.3 L/kg | microsomal CLint at 1 µM [17]: < 14 µL/min/mg | IC50 (Gamma-secretase [18]): 11.8 µM | IC50 (Cytochrome P450 3A4): > 27 µM | bioavailability [21]: 100% | Drug uptake (Brain): Active | half-life [22]: 6 h | Vd [23]: 3.1 L/kg | half-life [24]: 15.9 h | efflux ratio [27]: 1.2 | Cp(f) (Plasma [28]): 0.57 nM | clearance [29]: 9.67 mL/min/kg | Ratio [30]: 2
SMILES: Cc1cc(-c2ccc(NC(=O)[C@H](C)c3cc(C(F)(F)F)cc(C(F)(F)F)c3)cc2)ccn1
Activity (Rattus norvegicus [2]): Non-toxic | Activity (Rattus norvegicus [3]): inactive | Activity (Rattus norvegicus [4]): Non-toxic | Activity (Rattus norvegicus [6]): 33% | Activity (Rattus norvegicus [12]): Active | Activity (Rattus norvegicus [16]): inactive | Activity (Rattus norvegicus [19]): 55% | Activity (Rattus norvegicus [20]): 32% | Activity (Rattus norvegicus [25]): 41% | Activity (Rattus norvegicus [26]): 44%

AUC(0-t) at 24 h [32]: 386 ng·h/mL | Cp(f) (Plasma [37]): 0.4 nM | Cp(f) (Plasma [40]): 1.2 nM | fraction unbound [42]: 0.053 | AUC(0-t) at 24 h [44]: 144 ng·h/mL
SMILES: C[C@H](NC(=O)[C@@H](O)c1cc(F)cc(F)c1)C(=O)N[C@@H]1C(=O)N(C)c2ccccc2-c2ccccc21
Activity (Rattus norvegicus [31]): 37% | Activity (Rattus norvegicus [33]): 66% | Activity (Rattus norvegicus [34]): Toxic | Activity (Rattus norvegicus [35]): Toxic | Activity (Rattus norvegicus [36]): Toxic | Activity (Rattus norvegicus [38]): Toxic | Activity (Rattus norvegicus [39]): 33% | Activity (Rattus norvegicus [41]): Toxic | Activity (Rattus norvegicus [43]): Toxic | Activity (Rattus norvegicus [45]): Toxic

IC50 (Gamma-secretase [9]): > 10 µM | IC50 (Cytochrome P450 2D6): > 27 µM | microsomal CLint at 1 µM [13]: 19 µL/min/mg | Kp at 2 h [46]: 1.46 | inhibition [47]: 53% | microsomal CLint at 1 µM [17]: 91 µL/min/mg | IC50 (Cytochrome P450 3A4): > 27 µM
SMILES: Cc1cc(-c2ccc(NC(=O)c3cc(Cl)cc(Cl)c3)cc2)ccn1
